How the values were obtained:
OVCAR-8 = experiment: NCI-60 anticancer screening (SRB); assay type: cell-based; settings: Homo sapiens; for inhibition at 10 µM: OVCAR-8, ovarian cancer, one dose 10 μM, read-out: Growth Inhibition Percentage (GI %)
HL-60(TB) = experiment: NCI-60 anticancer screening (SRB); assay type: cell-based; settings: Homo sapiens; for inhibition at 10 µM: leukemia, one dose 10 μM, read-out: Growth Inhibition Percentage (GI %)
SW-620 = experiment: NCI-60 anticancer screening (SRB); assay type: cell-based; settings: Homo sapiens; for inhibition at 10 µM: SW-620, colon cancer, one dose 10 μM, read-out: Growth Inhibition Percentage (GI %)
T-47D = experiment: NCI-60 anticancer screening (SRB); assay type: cell-based; settings: Homo sapiens, T47D; for inhibition at 10 µM: breast cancer, one dose 10 μM, read-out: Growth Inhibition Percentage (GI %)
K-562 = experiment: NCI-60 anticancer screening (SRB); assay type: cell-based; settings: Homo sapiens, K562; for inhibition at 10 µM: K-562, leukemia, one dose 10 μM, read-out: Growth Inhibition Percentage (GI %)
OVCAR-4 = experiment: NCI-60 anticancer screening (SRB); assay type: cell-based; settings: Homo sapiens; for inhibition at 10 µM: OVCAR-4, ovarian cancer, one dose 10 μM, read-out: Growth Inhibition Percentage (GI %)
MOLT-4 = experiment: NCI-60 anticancer screening (SRB); assay type: cell-based; settings: Homo sapiens; for inhibition at 10 µM: MOLT-4, leukemia, one dose 10 μM, read-out: Growth Inhibition Percentage (GI %)
SK-MEL-28 = experiment: NCI-60 anticancer screening (SRB); assay type: cell-based; settings: Homo sapiens; for inhibition at 10 µM: SK-MEL-28, melanoma, one dose 10 μM, read-out: Growth Inhibition Percentage (GI %)
SNB-75 = experiment: NCI-60 anticancer screening (SRB); assay type: cell-based; settings: Homo sapiens; for inhibition at 10 µM: SNB-75, CNS cancer, one dose 10 μM, read-out: Growth Inhibition Percentage (GI %)
SR = experiment: NCI-60 anticancer screening (SRB); assay type: cell-based; settings: Homo sapiens; for inhibition at 10 µM: leukemia, one dose 10 μM, read-out: Growth Inhibition Percentage (GI %)
UACC-62 = experiment: NCI-60 anticancer screening (SRB); assay type: cell-based; settings: Homo sapiens; for inhibition at 10 µM: UACC-62, melanoma, one dose 10 μM, read-out: Growth Inhibition Percentage (GI %)
IGROV1 = experiment: NCI-60 anticancer screening (SRB); assay type: cell-based; settings: Homo sapiens, IGROV-1; for inhibition at 10 µM: IGROV1, ovarian cancer, one dose 10 μM, read-out: Growth Inhibition Percentage (GI %)
PC-3 = experiment: NCI-60 anticancer screening (SRB); assay type: cell-based; settings: Homo sapiens; for inhibition at 10 µM: PC-3, prostate cancer, one dose 10 μM, read-out: Growth Inhibition Percentage (GI %)
NCI-H460 = experiment: NCI-60 anticancer screening (SRB); assay type: cell-based; settings: Homo sapiens; for inhibition at 10 µM: NCI-H460, NSC lung cancer, one dose 10 μM, read-out: Growth Inhibition Percentage (GI %)
MDA-MB-231 = experiment: NCI-60 anticancer screening (SRB); assay type: cell-based; settings: Homo sapiens; for inhibition at 10 µM: MDA-MB-231, breast cancer, one dose 10 μM, read-out: Growth Inhibition Percentage (GI %)
SK-MEL-5 = experiment: NCI-60 anticancer screening (SRB); assay type: cell-based; settings: Homo sapiens; for inhibition at 10 µM: SK-MEL-5, melanoma, one dose 10 μM, read-out: Growth Inhibition Percentage (GI %)
EKVX = experiment: NCI-60 anticancer screening (SRB); assay type: cell-based; settings: Homo sapiens; for inhibition at 10 µM: NSC lung cancer, one dose 10 μM, read-out: Growth Inhibition Percentage (GI %)
KM 12 = experiment: NCI-60 anticancer screening (SRB); assay type: cell-based; settings: Homo sapiens, KM12; for inhibition at 10 µM: KM 12, colon cancer, one dose 10 μM, read-out: Growth Inhibition Percentage (GI %)
MALME-3M = experiment: NCI-60 anticancer screening (SRB); assay type: cell-based; settings: Homo sapiens; for inhibition at 10 µM: melanoma, one dose 10 μM, read-out: Growth Inhibition Percentage (GI %)
NCI 60 cancer cell lines = experiment: NCI-60 anticancer screening (SRB), whole panel; assay type: cell-based, human; settings: for GI % mean: mean across the NCI-60 panel, one dose 10 μM
UACC-257 = experiment: NCI-60 anticancer screening (SRB); assay type: cell-based; settings: Homo sapiens; for inhibition at 10 µM: UACC-257, melanoma, one dose 10 μM, read-out: Growth Inhibition Percentage (GI %)
M14 = experiment: NCI-60 anticancer screening (SRB); assay type: cell-based; settings: Homo sapiens; for inhibition at 10 µM: M14, melanoma, one dose 10 μM, read-out: Growth Inhibition Percentage (GI %)
CAKI-1 = experiment: NCI-60 anticancer screening (SRB); assay type: cell-based; settings: Homo sapiens; for inhibition at 10 µM: CAKI-1, renal cancer, one dose 10 μM, read-out: Growth Inhibition Percentage (GI %)
HT29 = experiment: NCI-60 anticancer screening (SRB); assay type: cell-based; settings: Homo sapiens, HT-29; for inhibition at 10 µM: HT29, colon cancer, one dose 10 μM, read-out: Growth Inhibition Percentage (GI %)
A498 = experiment: NCI-60 anticancer screening (SRB); assay type: cell-based; settings: Homo sapiens; for inhibition at 10 µM: A498, renal cancer, one dose 10 μM, read-out: Growth Inhibition Percentage (GI %)
HOP-92 = experiment: NCI-60 anticancer screening (SRB); assay type: cell-based; settings: Homo sapiens; for inhibition at 10 µM: HOP-92, NSC lung cancer, one dose 10 μM, read-out: Growth Inhibition Percentage (GI %)
MDA-MB-435 = experiment: NCI-60 anticancer screening (SRB); assay type: cell-based; settings: Homo sapiens; for inhibition at 10 µM: MDA-MB-435, melanoma, one dose 10 μM, read-out: Growth Inhibition Percentage (GI %)
A549/ATCC = experiment: NCI-60 anticancer screening (SRB); assay type: cell-based; settings: Homo sapiens; for inhibition at 10 µM: A549/ATCC, NSC lung cancer, one dose 10 μM, read-out: Growth Inhibition Percentage (GI %)
HCT-15 = experiment: NCI-60 anticancer screening (SRB); assay type: cell-based; settings: Homo sapiens; for inhibition at 10 µM: HCT-15, colon cancer, one dose 10 μM, read-out: Growth Inhibition Percentage (GI %)
HOP-62 = experiment: NCI-60 anticancer screening (SRB); assay type: cell-based; settings: Homo sapiens; for inhibition at 10 µM: HOP-62, NSC lung cancer, one dose 10 μM, read-out: Growth Inhibition Percentage (GI %)
SK-OV-3 = experiment: NCI-60 anticancer screening (SRB); assay type: cell-based; settings: Homo sapiens; for inhibition at 10 µM: SK-OV-3, ovarian cancer, one dose 10 μM, read-out: Growth Inhibition Percentage (GI %)
786-0 = experiment: NCI-60 anticancer screening (SRB); assay type: cell-based; settings: Homo sapiens; for inhibition at 10 µM: 786-0, renal cancer, one dose 10 μM, read-out: Growth Inhibition Percentage (GI %)

SMILES: CCOC(=O)C1=C(N)N(c2ccccc2)C2=C(C(=O)CC(C)(C)C2)C1c1ccc(Cl)cc1Cl (racemic) [10c, (±)-Ethyl 2-amino-4–(2,4-dichlorophenyl)-7,7-dimethyl-5-oxo-1-phenyl-1,4,5,6,7,8-hexahydroquinoline-3-carboxylate]
- inhibition at 10 µM (OVCAR-8): 63%
- GI50 (OVCAR-8; OVCAR-8, five doses 0.01-100 µM, 48 h): 3.72 µM
- GI50 (HL-60(TB); five doses 0.01-100 µM, 48 h): 5.95 µM
- inhibition at 10 µM (HL-60(TB)): 99%
- inhibition at 10 µM (SW-620): < 10%
- GI50 (SW-620; SW-620, five doses 0.01-100 µM, 48 h): 2.9 µM
- inhibition at 10 µM (T-47D): 79%
- GI50 (T-47D; five doses 0.01-100 µM, 48 h): 1.04 µM
- inhibition at 10 µM (K-562): 87%
- GI50 (K-562; K-562, five doses 0.01-100 µM, 48 h): 7.23 µM
- inhibition at 10 µM (OVCAR-4): 75%
- GI50 (OVCAR-4; OVCAR-4, five doses 0.01-100 µM, 48 h): 2.83 µM
- inhibition at 10 µM (MOLT-4): 93%
- GI50 (MOLT-4; MOLT-4, five doses 0.01-100 µM, 48 h): 9.56 µM
- inhibition at 10 µM (SK-MEL-28): 49%
- GI50 (SK-MEL-28; SK-MEL-28, five doses 0.01-100 µM, 48 h): 6.67 µM
- inhibition at 10 µM (SNB-75): 59%
- GI50 (SNB-75; SNB-75, five doses 0.01-100 µM, 48 h): 5.33 µM
- GI50 (SR; five doses 0.01-100 µM, 48 h): 1.47 µM
- inhibition at 10 µM (SR): 90%
- inhibition at 10 µM (UACC-62): 73%
- GI50 (UACC-62; UACC-62, five doses 0.01-100 µM, 48 h): 1.26 µM
- inhibition at 10 µM (IGROV1): 41%
- GI50 (IGROV1; IGROV1, five doses 0.01-100 µM, 48 h): 7.97 µM
- inhibition at 10 µM (PC-3): 90%
- GI50 (PC-3; PC-3, five doses 0.01-100 µM, 48 h): 4.14 µM
- inhibition at 10 µM (NCI-H460): 82%
- GI50 (NCI-H460; NCI-H460, five doses 0.01-100 µM, 48 h): 1.39 µM
- inhibition at 10 µM (MDA-MB-231): 75%
- GI50 (MDA-MB-231; MDA-MB-231, five doses 0.01-100 µM, 48 h): 3.34 µM
- inhibition at 10 µM (SK-MEL-5): 102%
- GI50 (SK-MEL-5; SK-MEL-5, five doses 0.01-100 µM, 48 h): 1.24 µM
- inhibition at 10 µM (EKVX): 81%
- GI50 (EKVX; five doses 0.01-100 µM, 48 h): 2.62 µM
- inhibition at 10 µM (KM 12): 81%
- GI50 (KM 12; KM-12, five doses 0.01-100 µM, 48 h): 2.36 µM
- GI50 (MALME-3M; five doses 0.01-100 µM, 48 h): 2.93 µM
- inhibition at 10 µM (MALME-3M): 72%
- LC50 (50% lethal concentration) (NCI 60 cancer cell lines; Homo sapiens, 60 cell, five doses, read-out: LC50 values towards 60 cell lines): > 100 µM
- GI50 (NCI 60 cancer cell lines; Homo sapiens, five doses 0.01-100 µM, 48 h, read-out: GI50 range against nearly all the tested cell lines): 1.04 to 9.56 µM
- GI % mean (NCI 60 cancer cell lines): 74%
- inhibition at 10 µM (UACC-257): 65%
- GI50 (UACC-257; UACC-257, five doses 0.01-100 µM, 48 h): 2.88 µM
- inhibition at 10 µM (M14): 59%
- GI50 (M14; M14, five doses 0.01-100 µM, 48 h): 3.48 µM
- inhibition at 10 µM (CAKI-1): 77%
- GI50 (CAKI-1; CAKI-1, five doses 0.01-100 µM, 48 h): 6.82 µM
- inhibition at 10 µM (HT29): 65%
- GI50 (HT29; five doses 0.01-100 µM, 48 h): 1.98 µM
- inhibition at 10 µM (A498): 53%
- GI50 (A498; A498, five doses 0.01-100 µM, 48 h): 4.54 µM
- inhibition at 10 µM (HOP-92): 100%
- GI50 (HOP-92; HOP-92, five doses 0.01-100 µM, 48 h): 3.89 µM
- inhibition at 10 µM (MDA-MB-435): 71%
- GI50 (MDA-MB-435; MDA-MB-435, five doses 0.01-100 µM, 48 h): 3.21 µM
- inhibition at 10 µM (A549/ATCC): 73%
- GI50 (A549/ATCC; A549, five doses 0.01-100 µM, 48 h): 1.88 µM
- inhibition at 10 µM (HCT-15): 86%
- GI50 (HCT-15; HCT-15, five doses 0.01-100 µM, 48 h): 1.52 µM
- inhibition at 10 µM (HOP-62): 49%
- GI50 (HOP-62; HOP-62, five doses 0.01-100 µM, 48 h): 4.88 µM
- inhibition at 10 µM (SK-OV-3): 66%
- GI50 (SK-OV-3; SK-OV-3, five doses 0.01-100 µM, 48 h): 3.35 µM
- inhibition at 10 µM (786-0): 66%
- GI50 (786-0; 786-0, five doses 0.01-100 µM, 48 h): 4.24 µM

SMILES: CCOC(=O)C1=C(N)N(c2ccc(Cl)cc2)C2=C(C(=O)CC(C)(C)C2)C1c1ccc(Cl)cc1Cl (racemic) [10d, (±)-Ethyl 2-amino-1–(4-chorophenyl)-4–(2,4-dichlorophenyl)-7,7-dimethyl-5-oxo-1-phenyl-1,4,5,6,7,8-hexahydroquinoline-3-carboxylate]
- inhibition at 10 µM (OVCAR-8): 29%
- inhibition at 10 µM (HL-60(TB)): 79%
- inhibition at 10 µM (SW-620): < 10%
- inhibition at 10 µM (T-47D): 74%
- inhibition at 10 µM (K-562): 79%
- inhibition at 10 µM (OVCAR-4): 56%
- inhibition at 10 µM (MOLT-4): 71%
- inhibition at 10 µM (SK-MEL-28): 30%
- inhibition at 10 µM (SNB-75): 11%
- inhibition at 10 µM (SR): 75%
- inhibition at 10 µM (UACC-62): 45%
- inhibition at 10 µM (IGROV1): 16%
- inhibition at 10 µM (PC-3): 79%
- inhibition at 10 µM (NCI-H460): 49%
- inhibition at 10 µM (MDA-MB-231): 42%
- inhibition at 10 µM (SK-MEL-5): 51%
- inhibition at 10 µM (EKVX): 71%
- inhibition at 10 µM (KM 12): 54%
- inhibition at 10 µM (MALME-3M): 32%
- GI % mean (NCI 60 cancer cell lines): 48%
- inhibition at 10 µM (UACC-257): 43%
- inhibition at 10 µM (M14): 30%
- inhibition at 10 µM (CAKI-1): 54%
- inhibition at 10 µM (HT29): 43%
- inhibition at 10 µM (A498): 23%
- inhibition at 10 µM (HOP-92): 55%
- inhibition at 10 µM (MDA-MB-435): 42%
- inhibition at 10 µM (A549/ATCC): 48%
- inhibition at 10 µM (HCT-15): 65%
- inhibition at 10 µM (HOP-62): 46%
- inhibition at 10 µM (SK-OV-3): 46%
- inhibition at 10 µM (786-0): 31%
